Source: ChEMBL document CHEMBL5143653, “4'-Nitrobiphenyl thioglucoside as the Smallest, fluorescent photosensitizer with cancer targeting ligand” (Bioorg Med Chem, 2022)

Key:
PC-3 [1] = test: Dark toxicity in human PC-3 cells assessed as reduction in cell viability at 300 uM incubated under dark for 2 hrs by MTT assay; format: cell-based; settings: pc-3, 2 h
[2] = Drug uptake in human PC-3 cells at 150 uM incubated under irradiation at 405 nm by confocal laser scan fluorescence microscopy; format: ADME, cell-based; settings: pc-3, 150 µM
[3] = Photodynamic cytotoxicity in human PC-3 cells assessed as reduction in cell viability under 405 nm irradiation exposure measured after 2 hrs by MTT assay; format: toxicity, cell-based
[4] = Drug uptake in human PC-3 cells at 150 uM incubated under irradiation at 405 nm in presence of cytochalasin B by confocal laser scan fluorescence microscopy; format: ADME, cell-based; settings: pc-3, 150 µM
[5] = Drug uptake in human PC-3 cells at 150 uM incubated under irradiation at 405 nm in presence of up top 25 mM glucose by confocal laser scan fluorescence microscopy; format: ADME, cell-based; settings: pc-3, 150 µM
PC-3 [6] = test: Dark toxicity in human PC-3 cells assessed as reduction in cell viability at 150 uM incubated under dark for 2 hrs by MTT assay; format: cell-based; settings: pc-3, 2 h

Structure (SMILES)	Activity (PC-3 [1])	Drug uptake [2]	IC50 at 2 h [3] [µM]	Drug uptake [4]	Drug uptake [5]	Activity (PC-3 [6])
O=[N+]([O-])c1ccc(-c2ccc(S[C@H]3O[C@H](CO)[C@@H](O)[C@H](O)[C@@H]3O)cc2)cc1	Toxic	Active	150			
O=[N+]([O-])c1ccc(-c2ccc(S[C@@H]3O[C@H](CO)[C@H](O)[C@H](O)[C@H]3O)cc2)cc1	Toxic	Active	120	Active	Active	
O=[N+]([O-])c1ccc(-c2ccc(S[C@@H]3O[C@H](CO)[C@@H](O)[C@H](O)[C@H]3O)cc2)cc1	Non-Toxic	Active	250			Non-Toxic
O=[N+]([O-])c1ccc(-c2ccc(OCCCO[C@@H]3O[C@H](CO)[C@@H](O)[C@H](O)[C@H]3O)cc2)cc1						Toxic
O=[N+]([O-])c1ccc(-c2ccc(O[C@@H]3O[C@H](CO)[C@@H](O)[C@H](O)[C@H]3O)cc2)cc1						Non-Toxic
O=[N+]([O-])c1ccc(-c2ccc(SCCCO[C@@H]3O[C@H](CO)[C@@H](O)[C@H](O)[C@H]3O)cc2)cc1						Toxic
O=[N+]([O-])c1ccc(-c2ccc(OCCCS[C@@H]3O[C@H](CO)[C@@H](O)[C@H](O)[C@H]3O)cc2)cc1						Toxic
